Source: patent US20260063623A1, “METHODS OF ASSESSING METABOLIC FLUX” (The Regents of the University of Michigan, priority 2022, published 2026)
Read-outs that look alike come from different tables or passages of the source.

Columns and labels:
[1] = tested on: de novo GMP synthesis (IMPDH); experiment: Machine learning prediction of de novo GMP synthesis ratio in MMF treated vs control GBM PDXs infused with U13C glucose; type: in vivo; settings: MMF treated GBM PDX mice vs control PDXs, from measured enrichment patterns
Description: To generate data used for flux modeling, patient-derived xenografts (PDXs) from human glioblastomas are implanted into the brains of immunodeficient mice. PDXs are transduced with luciferase and EGFP prior for imaging and physical separation from brain tissue, respectively. Once brain tumors are established, mice are cannulated for infusions, treatments, and blood sampling. One catheter is surgically placed into the jugular vein of anesthetized recipient mice, and a second line is placed into the carotid artery. In experiments in which mice are to receive oral administration of MMF or vehicle, a third catheter is directed to the stomach. […] Brain tumors are separated from healthy brain tissue by fluorescence-guided microdissection. […] Small molecules from solid tissues and plasma are extracted and samples are analyzed by liquid chromatography-mass spectrometry (LC-MS) to identify the metabolites and their labeling patterns (FIG. 1A).
To train machine learning models that can predict the ratio of de novo synthesis of GMP to the overall GMP synthesis, simulated MIDs were used as input features. […] A machine learning model with a good evaluation score on a test dataset should be also evaluated on some experimental value for further validation. […] By measuring the MIDs in these two groups, the de novo GMP ratio can be calculated using the INST-MFA method and compared to machine learning results. […]

[2] = tested on: inosine monophosphate dehydrogenase (IMPDH); settings: mice models, combined with radiation; cited from earlier work
[3] = human, in vivo
Protocol: Eight patients with suspected GBM were recruited to the IRB-approved clinical study, which was performed perioperatively with standard-of-care craniotomies. Near the start of each procedure (approximately 2-4 hours prior to tissue resection), patients received a bolus intravenous dose of [U^13C]-glucose (8 g) followed by a continuous intravenous infusion of [U^13C]-glucose at a rate of 4 g/h. Arterial blood was collected into EDTA-coated vials every 30-60 min for plasma preparation and analysis until solid tissues of interest were harvested from each patient. […]
(§1) Flash-frozen tissue samples were homogenized in cold (−80° C.) 80% methanol. […] Isotope labeling was determined using an Agilent system consisting of an Infinity Lab II UPLC coupled with a 6545 QTOF mass spectrometer (Agilent Technologies, Santa Clara, CA), and data were analyzed with values corrected for natural isotope abundance using MassHunter Profinder 10.0. […] To determine relative metabolite abundances in tissues and plasma from control or Ser/Gly (−) diet fed mice, samples were prepared as described above and then analyzed with an Agilent 1290 Infinity II LC-6470 Triple Quadrupole tandem mass spectrometer system (Agilent Technologies, Santa Clara, CA). For compound optimization, calibration, and data acquisition, Agilent MassHunter Quantitative Analysis Software version B.08.02 was used.

[4] = parameters: species or system mice; settings: mouse, in vivo
Description: At approximately 1-2 weeks before expected death related to brain tumors (˜3 weeks post-implant), intracranial GBM-bearing mice underwent dual catheterizations, with one catheter surgically placed into the jugular vein (for [U^13C]-glucose administration) and a second catheter placed into the carotid artery (for plasma collection during infusion). Mice were then allowed to recover from surgery for 4-5 days. In studies assessing the influence of RT on metabolism, cannulated mice were anesthetized by 2% isoflurane inhalation and then treated with cranially directed RT at a dose of 8 Gy or sham RT with a lead shield keeping the cranium […]. […]
as §1, with “For compound optimization, calibration, and data acquisition, Agilent MassHunter Quantitative Analysis Software version B.08.02 was used.” left out

Compound | de novo GMP synthesis ratio (de novo to overall GMP synthesis) predicted by machine learning model [1] | radiation outcomes [2] | time to arterial steady state of labeled glucose [3] | time to arterial steady state of labeled glucose [4] [min]
COc1c(C)c2c(c(O)c1C/C=C(\C)CCC(=O)OCCN1CCOCC1)C(=O)OC2 [MMF, mycophenolate mofetil] | lower de novo GMP synthesis ratio | improves radiation outcomes | – | –
[U^13C]-glucose | – | – | approximately 30 minutes | ≤ 30
